Literature values in patent US20260335309A1, “METHODS OF TREATING UVEAL MELANOMA” (IDEAYA BIOSCIENCES, INC., priority 2022, published 2026).

Tested on: uveal melanoma cells harboring GNAQ mutations
Details: by targeting PKC/ERK1/2 and PKC/NF-xB pathways; X. Wu et al., Mol. Cancer Ther. 2012

For `CN1CCN(c2nc(C3=C(c4c[nH]c5ccccc45)C(=O)NC3=O)c3ccccc3n2)CC1` [sotrastaurin], the “inhibition of growth of uveal melanoma cells harboring GNAQ mutations” value is listed as “selectively inhibit the growth of uveal melanoma cells harboring GNAQ mutations”.
